Data reported in paper PMC7822819, “Discovery of a new class of integrin antibodies for fibrosis” (Scientific Reports, 2021).
“And” between values parts separate entries of the source, which are not always exact repeats. Identical values can stand only once.

Experiments:
[1] = tested on: normal human lung fibroblasts; test: TGFβ-induced αSMA high-content imaging; format: cell-based; details: 10 μM, 30 min pre-treatment, TGFβ 5 ng/mL, 48 h
Protocol: (§1) Normal human lung fibroblasts (Lonza) and Primary Human IPF Lung Parenchymal Fibroblasts (Donor2) (BioIVT, #PCR-70-0214) were incubated at 37 °C and 5% CO2. To induce fibrotic response in primary cells, a final concentration of 5 ng/ml of recombinant human TGFβ1 (BioLegend, #580702) was added to the culture media and treated for 24 ~ 48 h. Anti-TGFβ neutralizing antibody (1D11) and the isotype control mouse IgG1 were from BioXcell. SB-525334 and bleomycin were from Sigma. MK-0429 was synthesized by Merck & Co., Inc., Kenilworth, NJ, USA. CHOK1-integrin stable lines were cultured in DMEM/F12, Glutamax (Gibco #10565018), 10% FBS (Gibco 310091148), 1 × Pen/Strep (Gibco 315140-148), and 6 ug/mL Puromycin (Gibco #A1113803).
(§2) Primary cells (passage 3–5) were grown on Cell carrier Ultra, col1 coated 96-well plates (Perkin Elmer, #6055700) at a density of 25,000 cells/well. Once the cells adhere, they were starved in serum free media for 24 h followed by addition of treatments i.e. 5 ng/mL TGFβ (Biolegend #580702) ± inhibitors. Cells were pre-treated with inhibitors for 30 min prior to the addition of TGFβ stimulation. 48hours post treatment, the cells were fixed in 4% methanol free paraformaldehyde (ThermoFisher Scientific #28908) for 20 min at room temperature and incubated with anti-alpha smooth muscle Actin antibody (Abcam #ab7817) at 1:4000 overnight at 4 °C. […]

[2] = tested on: IPF patient lung fibroblasts; test: TGFβ-induced αSMA high-content imaging; format: cell-based, human; details: TGFβ 5 ng/mL, 48 h, read-out: IC50 TGFβ-mediated αSMA induction
Protocol: as §1, §2

[3] = tested on: bleomycin-induced lung fibrosis; test: Bleomycin-induced lung fibrosis mouse model; format: in vivo; details: BLM mice, Nintedanib 60 mpk po qd
Protocol: Adult male C57BL/6 mice (Taconic, Rensselaer, NY) were housed in a temperature and humidity-controlled facility with a 12 h light: 12-h dark cycle. Animals had ad libitum access to food (Purina Rodent Chow 5053, LabDiet, St. Louis, MO) and water. All procedures utilizing experimental animals were conducted in accordance with the Guide for the Care and Use of Laboratory Animals, and experimental procedures were reviewed and approved by the Institutional Animal Care and Use Committee at MRL, Kenilworth, NJ. For osmotic minipump implantation, TFA salt of MK-0429 was formulated in 50% DMSO/50% H2O at a concentration of 416 mg/mL. MK-0429 or vehicle solution were filled in minipumps (Alzet, # 1007D, flow rate 0.5 μL/h). Minipumps were placed in mice subcutaneously in a pocket on the back between the shoulder blades. A small incision was made and a subcutaneous pocket formed by blunt dissection. A sterile minipump was inserted into the subcutaneous pocket. The incision was closed with staples or non-absorbable suture or absorbable (subcuticular) suture. The minipumps were used for continuous drug delivery for 2 weeks. Mice at 12 ~ 13 weeks of age were randomized to 5 groups: saline, bleomycin instillation with vehicle (osmotic minipump), bleomycin instillation with MK-0429 treatment, bleomycin instillation with vehicle oral treatment, and bleomycin instillation with Nintedanib treatment. All mice were anaesthetized with isoflurane. Bleomycin was dosed by intra-tracheal (i.t) instillation in a volume of 50 µl, at a dose of 1unit /kg body weight. After instillation, mice were kept in a heads-up position for 2–5 min before putting into cages. MK-0429 (200 mg/kg) was administered by Osmotic pump from day 5 to day 14 and Nintedanib (60 mg/kg) was administered, p.o., q.d., for 14 days. Vehicle was dosed orally at 10 am daily from the day 5 to the end of the studies and dosing volume was 10 mL/kg. For plasma PK analysis, an aliquot of 50 μL plasma was spiked into a 96-well plate, and 200 μL of acetonitrile containing internal standard were added for protein precipitation. The mixture was vortexed, centrifuged at 4000 rpm for 20 min. 50 μL of supernatant were mixed with 200 μl H2O and the final solution were injected for LC–MS/MS analysis. The methods for quantitative analysis were developed on UPLC (Waters) chromatographic system equipped with an API4000 QTrap mass spectrometer (Applied Biosystems, Concord, Ontario, Canada). Analyst 1.5 software packages (Applied Biosystems) were used to control the LC–MS/MS system and data acquisition and processing. Upon completion of the study, animals were euthanized and tissues were collected for histological assessment. Lung tissues were perfused with 10% formalin, fixed for 24 h, and then paraffin embedded. Tissue sections were stained with hematoxylin & eosin (H&E) and Masson’s trichrome, subsequently evaluated under light microscope. The severity of histopathologic changes and fibrosis in the lung were graded as described previously by pathologists[51],[52]. Following deparaffinization and rehydration, each lung tissue section was processed to identify αSMA deposition by immunohistochemistry. The primary antibodies used were αSMA antibody from Sigma. The Aperio ScanScope XT Slide Scanner (Aperio Technologies) system was used to capture whole slide digital images with a 20 × objective. Digital images were managed using Aperio Spectrum. The positive stains were identified and quantified using a macro created from a color deconvolution algorithm (Aperio Technologies). Statistical analysis was performed by using One-way ANOVA followed by Tukey’s test.

[4] = Plasma total drug concentration in bleomycin model (LC-MS/MS); format: in vivo, mouse; details: 2 h after last dose, Day 19; MK-0429 200 mpk minipump, Nintedanib 60 mpk po qd; mean ± SE
Protocol: Mice at 12 ~ 13 weeks of age were randomized to 5 groups: saline, bleomycin instillation with vehicle (osmotic minipump), bleomycin instillation with MK-0429 treatment, bleomycin instillation with vehicle oral treatment, and bleomycin instillation with Nintedanib treatment. All mice were anaesthetized with isoflurane. Bleomycin was dosed by intra-tracheal (i.t) instillation in a volume of 50 µl, at a dose of 1unit /kg body weight. After instillation, mice were kept in a heads-up position for 2–5 min before putting into cages. MK-0429 (200 mg/kg) was administered by Osmotic pump from day 5 to day 14 and Nintedanib (60 mg/kg) was administered, p.o., q.d., for 14 days. Vehicle was dosed orally at 10 am daily from the day 5 to the end of the studies and dosing volume was 10 mL/kg. For plasma PK analysis, an aliquot of 50 μL plasma was spiked into a 96-well plate, and 200 μL of acetonitrile containing internal standard were added for protein precipitation. The mixture was vortexed, centrifuged at 4000 rpm for 20 min. 50 μL of supernatant were mixed with 200 μl H2O and the final solution were injected for LC–MS/MS analysis. The methods for quantitative analysis were developed on UPLC (Waters) chromatographic system equipped with an API4000 QTrap mass spectrometer (Applied Biosystems, Concord, Ontario, Canada). […]

[5] = treatment from day 5 for 14 days, MK-0429 200 mpk osmotic minipump, vs BLM-vehicle

| SMILES | αSMA intensity and percentage of stimulated cells following TGFβ treatment [1] | IC50 [2] [nM] | TIMP-1 content in BALF ([3]; 14 days treatment, MK-0429 200 mpk minipump) | Modified Ashcroft score of mouse lung [3, 5] | Total inflammation area in mouse lungs [3, 5] | αSMA immunohistochemistry in lung [3, 5] | Body weight vs bleomycin group ([3]; MK-0429 200 mpk minipump) | Mean plasma total drug concentration [4] |
| --- | --- | --- | --- | --- | --- | --- | --- | --- |
| Cc1cccc(-c2[nH]c(C(C)(C)C)nc2-c2ccc3nccnc3c2)n1 [SB-525334] | significantly reduced | 56 ± 22 | – | – | – | – | – | – |
| COC(=O)c1ccc2c(c1)NC(=O)/C2=C(\Nc1ccc(N(C)C(=O)CN2CCN(C)CC2)cc1)c1ccccc1 [Nintedanib] | – | – | significantly decreased | significantly improved | decreased | significantly decreased | no significant body weight difference | 656.1 ng/mL and 656 ± 229 ng/mL |
